Data taken from US11911361B2, “Stable cannabinoid formulations” (priority 2014, dated 2024).

What was measured:
[1] = Pharmacokinetic food-effect study, single 20 mg/kg dose, healthy subjects (Example 17); details: 7-OH-cannabidiol; for ln(AUC0-inf) Geometric Mean / ln(AUC0-t) Geometric Mean / ln(Cmax) Geometric Mean: least squares geometric mean; for AUC0 / AUC0-0.25 / AUC0-0.5 / AUC0-0.75 / AUC0-1 / AUC0-1.5 / AUC0-2 / AUC0-2.5 / AUC0-3 / AUC0-4 / AUC0-6 / AUC0-8 / AUC0-12 / AUC0-16 / AUC0-24 / AUC0-36 / AUC0-48 / AUC0-72 / AUC0-96 / AUC0-120: single 20 mg/kg cannabidiol oral, mean ± SD; for AUC(0-inf) / AUC(0-t) / AUCextrap / Clast / Cmax / Tlast / t1/2 / λz / Tmax: single 20 mg/kg oral dose of cannabidiol solution; for AUC(0-inf) / AUC(0-t) / AUCextrap / Clast / Cmax / Tlast / t1/2 / λz: mean; for Tmax: median (min, max)
Description: An open label, randomized, single-dose, two-period, two-way crossover food-effect study was conducted on healthy subjects. […] Twenty-four (24) subjects were enrolled in the study and each were subjected to the fasted and fed treatment arms in separate periods followed by a 7-day wash-out period. For pharmacokinetic analysis, nominal time and default lambda-z selections were used. All below quantifiable limit values were set to zero and all subjects were included in the analysis.
Data from 13 subjects from the fasted treatment and 24 subject from the fed treatment were included in the pharmacokinetic and statistical analyses.

[2] = tested on: paclitaxel-induced mechanical sensitivity; experiment: Paclitaxel induced neuropathic pain study (Von Frey mechanical sensitivity); assay type: in vivo, mice
[3] = 20 mg/kg cannabidiol oral, Fasted
[4] = 20 mg/kg cannabidiol oral, geometric mean (fed)/geometric mean (fasted)

In the case of `C=C(C)[C@@H]1CCC(CO)=C[C@H]1c1c(O)cc(CCCCC)cc1O` [Formulation 7-OH-cannabidiol], the “ln(AUC0-inf) Geometric Mean” value [1, 3] is reported as 657.5873, the “ln(AUC0-t) Geometric Mean” value [1, 3] is reported as 630.3322 and the “ln(Cmax) Geometric Mean” value [1, 3] is reported as 34.8933. For the same compound, the “ln(AUC0-inf) Geometric Mean” value ([1]; 20 mg/kg cannabidiol oral, Fed) was 4701.4345, the “ln(AUC0-t) Geometric Mean” value ([1]; 20 mg/kg cannabidiol oral, Fed) was 4610.3024 and the “ln(Cmax) Geometric Mean” value ([1]; 20 mg/kg cannabidiol oral, Fed) was 442.6751. The “ln(AUC0-inf) Ratio (%) (Fed/Fasted)” value [1, 4] was 714.95%, the “ln(AUC0-t) Ratio (%) (Fed/Fasted)” value [1, 4] was 731.41% and the “ln(Cmax) Ratio (%) (Fed/Fasted)” value [1, 4] was 1268.65%. It also gave an AUC0 ([1]; fasted) of 0.114 ± 0.410 ng·h/mL, an AUC0-0.25 ([1]; fasted) of 0.101 ± 0.363 ng·h/mL and an AUC0-0.5 ([1]; fasted) of 0.217 ± 0.361 ng·h/mL. The AUC0-0.75 ([1]; fasted) was 0.954 ± 0.843 ng·h/mL, the AUC0-1 ([1]; fasted) was 2.29 ± 2.13 ng·h/mL and the AUC0-1.5 ([1]; fasted) was 3.91 ± 3.90 ng·h/mL. For the same compound, the AUC0-2 ([1]; fasted) was 5.46 ± 5.23 ng·h/mL, the AUC0-2.5 ([1]; fasted) was 6.81 ± 6.85 ng·h/mL and the AUC0-3 ([1]; fasted) was 7.83 ± 8.27 ng·h/mL. For the same compound, the AUC0-4 ([1]; fasted) was 8.65 ± 8.64 ng·h/mL, the AUC0-6 ([1]; fasted) was 9.79 ± 7.71 ng·h/mL and the AUC0-8 ([1]; fasted) was 18.5 ± 34.2 ng·h/mL. For the same compound, the AUC0-12 ([1]; fasted) was 10.1 ± 8.36 ng·h/mL, the AUC0-16 ([1]; fasted) was 7.23 ± 4.28 ng·h/mL and the AUC0-24 ([1]; fasted) was 6.09 ± 2.70 ng·h/mL. It also gave an AUC0-36 ([1]; fasted) of 4.39 ± 2.45 ng·h/mL, an AUC0-48 ([1]; fasted) of 3.00 ± 1.91 ng·h/mL and an AUC0-72 ([1]; fasted) of 1.65 ± 1.38 ng·h/mL. For the same compound, the AUC0-96 ([1]; fasted) was 1.04 ± 1.11 ng·h/mL, the AUC0-120 ([1]; fasted) was 0.511 ± 0.799 ng·h/mL and the AUC0 ([1]; fed) was 0.131 ± 0.537 ng·h/mL. For the same compound, the AUC0-0.25 ([1]; fed) was 0.221 ± 0.676 ng·h/mL, the AUC0-0.5 ([1]; fed) was 0.980 ± 1.29 ng·h/mL and the AUC0-0.75 ([1]; fed) was 2.87 ± 4.21 ng·h/mL. The AUC0-1 ([1]; fed) was 7.33 ± 11.7 ng·h/mL, the AUC0-1.5 ([1]; fed) was 47.5 ± 78.5 ng·h/mL and the AUC0-2 ([1]; fed) was 104 ± 150 ng·h/mL. It also gave an AUC0-2.5 ([1]; fed) of 158 ± 202 ng·h/mL, an AUC0-3 ([1]; fed) of 197 ± 235 ng·h/mL and an AUC0-4 ([1]; fed) of 289 ± 290 ng·h/mL. The AUC0-6 ([1]; fed) was 346 ± 188 ng·h/mL, the AUC0-8 ([1]; fed) was 284 ± 128 ng·h/mL and the AUC0-12 ([1]; fed) was 187 ± 121 ng·h/mL. The AUC0-16 ([1]; fed) was 85.7 ± 36.9 ng·h/mL, the AUC0-24 ([1]; fed) was 47.5 ± 23.0 ng·h/mL and the AUC0-36 ([1]; fed) was 26.7 ± 13.1 ng·h/mL. The AUC0-48 ([1]; fed) was 16.9 ± 7.73 ng·h/mL, the AUC0-72 ([1]; fed) was 7.36 ± 3.10 ng·h/mL and the AUC0-96 ([1]; fed) was 4.03 ± 1.94 ng·h/mL. It also gave an AUC0-120 ([1]; fed) of 2.41 ± 1.26 ng·h/mL, an AUC(0-inf) ([1]; fasted) of 425.3 ng·h/mL and an AUC(0-t) ([1]; fasted) of 414.7 ng·h/mL. The AUCextrap ([1]; fasted) was 2.77%, the Clast ([1]; fasted) was 0.561 ng/mL and the Cmax ([1]; fasted) was 22.8 ng/mL. The Tlast ([1]; fasted) was 114.47 h, the t1/2 ([1]; fasted) was 21.36 h and the λz ([1]; fasted) was 0.0348 h⁻¹. The Tmax ([1]; fasted) was 8.00 (2.50, 24.00) h, the AUC(0-inf) ([1]; fed) was 4902 ng·h/mL and the AUC(0-t) ([1]; fed) was 4811 ng·h/mL. The AUCextrap ([1]; fed) was 1.93%, the Clast ([1]; fed) was 2.41 ng/mL and the Cmax ([1]; fed) was 474 ng/mL. For the same compound, the Tlast ([1]; fed) was 120.00 h, the t1/2 ([1]; fed) was 24.69 h and the λz ([1]; fed) was 0.0292 h⁻¹. For the same compound, the Tmax ([1]; fed) was 6.00 (3.00, 12.00) h.

For `CCCCCc1cc(O)c2c(c1)OC(C)(C)[C@@H]1CCC(C)=C[C@@H]21` [THC, reference compound], the minimal effective dose ([2]; IP) was 2.5 mg/kg, the “dose equi-effective to […] CBD” value ([2]; dose equivalence analysis) was 0.7 mg/kg and the “effect on paclitaxel-induced mechanical sensitivity (in words)” value ([2]; pretreatment 15 minutes prior to each paclitaxel injection, IP) was “significantly attenuated”.
